Assay results as given in patent US20220257503A1, “Surface Modified Gas Vesicles, Preparation and Applications thereof” (THE HONG KONG POLYTECHNIC UNIVERSITY, priority 2019, published 2022).

Columns and labels:
[1] = system: SCC7 tumor-bearing nude mice; assay: Biodistribution by NIR fluorescence imaging in tumor-bearing mice; assay type: in vivo
Description: Animal experiments were conducted under protocols approved by Animal Care and Use Committee (CC/ACUCC) of Hong Kong Polytechnic University. Suspension of 4×10^6 SCC7 cells in PBS (80 μL) was injected to subcutaneous sites in athymic nude mice (seven weeks old, female, 20-24 g). When the tumor size (in the right leg region) reached average size of 120 mm^3, mice were randomly allocated into three groups, (a) injecting free ICG solution into the tail veins of mice; (b) injecting ICG labelled GVs solution into the tail veins of mice; and (c) injecting ICG labelled PH-GVs solution into the tail veins of mice. Fluorescent imagines were acquired at 0, 0.5, 1, 2, 4, 8, 12, 24 and 48 h after injection using IVIS Lumina II (Caliper Life Sciences, USA; Excitation Filter: 780 nm, Emission Filter: 800 nm).
At the time of highest accumulation after one-dose injection, SCC7 tumors and normal organs (hearts, livers, spleens, kidneys, lungs and muscles) were collected for acquisition of Fluorescent signal intensity.

[2] = Singlet oxygen generation in cell free system under ultrasound (SOSG); settings: alone; PpIX 10 μM, GVs 2 nM
Description: SDT setup: 1 MHz planar ultrasound transducer with diameter of 5 cm (Olympus, Tokyo, Japan) was used for sonification in this study. Function generator (AFG 3251, Tektronix Company, Oregon, USA) and power amplifier (Model 500 A250 CAR; Souderton, Pa., USA) were used to generate ultrasonic pulses. Cells were exposed to ultrasound 10 cm away from transducer coupled by degassed deionized water at 25° C. Acoustic intensity and field were characterized by hydrophone (HGL-200; Onda, Sunnyvale, Calif., USA). The spatial peak temporal average intensity was measured to be 8 W/cm^2; the duty cycle was 20% with fixed pulse repetition frequency (PRF) of 1000 Hz. The overall sonification duration was 5 min. The temperature increase in cell-culture experiment solution was controlled within 2.5° C. After the ultrasound treatment, cells were cultured in fresh medium for 4 h and then prepared for different analyses.
Generation of singlet oxygen: SOSG (10 μM) was used to detect singlet oxygen generation. The solution was exposed to ultrasound and protected from light during the exposure time. The fluorescence intensity of SOSG was measured by microplate reader at an excitation wavelength of 488 nm and an emission wavelength of 530 nm.

[3] = system: MCF-7 cells; assay: Cell apoptosis after PDT by Annexin V/PI flow cytometry; assay type: cell-based, Human; settings: PDT (PpIX plus laser)
Description: (§1) Photodynamic therapy setup: Cells were exposed to laser with the power of 100 mW/cm^2 for 5 min. The light source with a wavelength of 396 nm that was generated by an optical fiber was collimated to an aperture and irradiated to the 35 mm cell culture dish. The position of the cell culture plate was manually controlled by a dual-axis electric linear platform. After the treatment, cells were cultured in fresh medium for 4 h and then prepared for different analyses.
Cell apoptosis test: Cells were seeded at a density of 5×10^5 cells in 6-cm dishes and incubated for 24 h. Alexa Fluor 488 Annexin V/Dead Cell Apoptosis Kit (Thermo Fisher Scientific) was used to measure cell apoptosis according to the manufacturer's instructions. Cells were collected and incubated with 5 μL of the annexin V conjugate and 1 μL of the PI working solution at room temperature for 15 min. The cells were analyzed by FACS Calibur flow cytometer and BD Accuri C6 Software (Becton-Dickinson, USA).

[4] = system: MCF-7 cells; assay: PDT cytotoxicity by CCK-8 assay; assay type: cell-based, Human
Description: as §1
Cell culture: Human breast cancer cell line (MCF-7) was obtained from the Shanghai Cell Bank. […]
Cell viability test: In the pilot study, MCF-7 cells were divided randomly into eight groups: (1) control, (2) laser alone, (3) PpIX alone, (4) PpIX plus laser (PDT), (5) PpIX+GVs+laser (PDT+GVs), (6) PpIX+oxyGVs+laser (PDT+oxy-GVs), (7) GVs+laser, and (8) oxyGVs+laser. […] Cell viability at the different time points following PDT was determined using a Cell Counting Kit-8 (Sigma-Aldrich) according to the manufacturer's instructions. […] Cytotoxicity was determined by adding 10 μl CCK-8 reagent per well for 1 h at 37° C. in 5% CO2. The absorbance of the treated samples against a blank control was measured at 450 nm as the detection wavelength. The viability of treated cells was determined by comparing to the untreated ones in the control group.

CC1(C)C(/C=C/C=C/C=C/C=C2\N(CCCCS(=O)(=O)[O-])c3ccc4ccccc4c3C2(C)C)=[N+](CCCCS(=O)(=O)[O-])c2ccc3ccccc3c21.[Na+] [ICG]
fluorescence at tumor sites (in vivo imaging) ([1]; after intravenous injection, PH-GVs at 8 h): no strong fluorescence signal | fluorescence signals in the normal organs (in vivo imaging) ([1]; early time points (0.5-2 h) for ICG/GVs, up to 8 h for PH-GVs): considerable fluorescence signals

C=CC1=C(C)c2cc3[nH]c(cc4[nH]c(cc5nc(cc1n2)C(C)=C5C=C)c(C)c4CCC(=O)O)c(CCC(=O)O)c3C [PpIX]
SOSG fluorescence intensity before and after ultrasound treatment [2]: increased significantly | viable cells [3]: 74.7% | effects on cell viability ([4]; PpIX alone, no laser): no effects | cell viability ([4]; PpIX+laser (ALA-PDT), 4 h following PDT): 75%
